Experimental data: US12594292B2, “Antiviral prodrugs, intermediate-and long-acting formulations and methods” (priority 2022, dated 2026)
Like-named read-outs stand apart in the source and are kept apart here.

Tests used:
[1] = test system: Calu-3 cells; experiment: Cytotoxicity in Calu-3 cells, nuclei count or CellTiter-Glo (Example 6); conditions: for select compounds up to 100 μM by CellTiter-Glo
Protocol: After which an equal volume of CellTiter-Glo reagent (Cat. #G7570, Promega, Madison, WI) was added, mixed and luminescence recorded on a Veritas Microplate Luminometer (Turner BioSystems) according to manufacturer recommendations.

[2] = test system: SARS-CoV-2; experiment: SARS-CoV-2 infection assay in Calu-3 cells, nucleocapsid immunofluorescence (Example 6); conditions: MOI 0.01, 44 hour
[3] = test system: MRC-5 cells
[4] = test system: HCoV-229E; format: cell-based, human Coronavirus 229E
[5] = test system: Huh7.5 cells; experiment: Cytotoxicity in Huh7.5 cells, nuclei count (Example 6); format: cell-based, human; conditions: Huh7.5 cells; read-out: CC50
[6] = test system: SARS-CoV-2; experiment: SARS-CoV-2 infection assay in Huh7.5 cells, nucleocapsid immunofluorescence (Example 6); format: cell-based; conditions: MOI 0.1, 48 hours
[7] = test system: TMPRSS2-Vero cells; experiment: Cytotoxicity in TMPRSS2-Vero cells, nuclei count (Example 6); format: cell-based; conditions: TMPRSS2-Vero cells; read-out: CC50
[8] = test system: SARS-CoV-2; experiment: SARS-CoV-2 infection assay in TMPRSS2-Vero cells, nucleocapsid immunofluorescence (Example 6); format: cell-based; conditions: MOI 0.01, 32 hours
[9] = test system: human PBMCs; experiment: Cytotoxicity (CC50) in human PBMCs; format: cell-based
[10] = test system: HIV-1; conditions: for EC50: HIV infected human PBMCs
Protocol: Antiviral activities were determined in HIV infected human PBMCs.

[11] = test system: HFF cells; experiment: Persistence of TFVpp in HFF cells after a 3 day exposure
From the text: HFF cells were exposed to 1 micromolar drug for 3 days. At days 0, 1, 2, 4, 7, 14, 21, and 28, cells were trypsinized, counted, and processed for LC/MS measurement of TFVpp. Data were expressed at ftg/cell. nm=not meaningful; ftg—gemtogram.

[12] = test system: Calu 3; experiment: Antiviral evaluation of cyanobenzyl analogs, Calu 3; format: cell-based; conditions: Calu 3
[13] = test system: Huh7.5; experiment: Antiviral evaluation of cyanobenzyl analogs, Huh7.5; format: cell-based
[14] = variation of the diester substituent of ODE-TFV, read-out: CC50
[15] = variation of the diester substituent of ODE-TFV
[16] = HFF cells, 1 micromolar drug for 3 days

## 1-O-Octadecyl-2-O-(ethylcyclohexyl)-sn-glyceryl-phospho-RVn [Compound 15g]
[1]
  CC50: > 20000 nM
[2]
  EC50: 147 ± 32 nM
  EC90: 1660 ± 798 nM

## 2-(Octadecyloxy)ethyl benzyl phospho-RVn [Compound 6c]
[3]
  CC50: > 50000 nM
[4]
  EC50: 220 ± 56 nM
  EC90: 440 ± 85 nM

## CCCCCCCCCCCCCCCCCCOCC(COP(=O)(O)OC[C@H]1O[C@@](C#N)(c2ccc3c(N)ncnn23)[C@H](O)[C@@H]1O)OCc1ccccc1 (mixture of isomers) [Compound 15e, 1-O-octadecyl-2-O-benzyl-rac-glyceryl-phospho-RVn]
[1]
  CC50: > 20000 nM
[2]
  EC50: 210 ± 62 nM
  EC90: 763 ± 490 nM
[5]
  CC50: > 20000 nM
[6]
  EC50: 163 nM
  EC90: 514 nM
[7]
  CC50: > 20000 nM
[3]
  CC50: 30900 ± 7700 nM
[4]
  EC50: 210 ± 4 nM
  EC90: 350 ± 6 nM
[8]
  EC50: 242 nM
  EC90: 642 nM

## CCCCCCCCCCCCCCCCCCOCCOP(=O)(CO[C@H](C)Cn1cnc2c(N)ncnc21)OCc1cccc(C)c1 (stereo partly shown) [3-methyl benzyl]
[9]; [14]
  CC50: 3860 nM
[10]; [15]
  Selectivity Index: 1210
  EC50: 3.2 nM

## CCCCCCCCCCCCCCCCCCCCOP(=O)(O)OC[C@H]1O[C@](C#N)(c2ccc3c(N)ncnn23)[C@H](O)[C@@H]1O [Compound 4a, Eicosyl-phospho-RVn]
[1]
  CC50: > 20000 nM
[2]
  EC50: 178 ± 35 nM
  EC90: 1320 ± 566 nM
[5]
  CC50: > 20000 nM
[6]
  EC50: 1410 nM
  EC90: 4750 nM
[7]
  CC50: > 20000 nM
[3]
  CC50: > 50000 nM
[4]
  EC50: 910 nM
  EC90: 1800 nM
[8]
  EC50: 1170 nM
  EC90: 2180 nM

## CCCCCCCCCCCCCCOC[C@H](COP(=O)(O)OC[C@H]1O[C@@](C#N)(c2ccc3c(N)ncnn23)[C@H](O)[C@@H]1O)OCc1ccccc1 [Compound 15a, 1-O-Tetradecyl-2-O-benzyl-sn-glyceryl-phospho-RVn]
[1]
  CC50: > 20000 nM
[2]
  EC50: 212 ± 25 nM
  EC90: 536 ± 150 nM
[5]
  CC50: > 20000 nM
[6]
  EC50: 156 nM
  EC90: 493 nM
[7]
  CC50: > 20000 nM
[3]
  CC50: > 50000 nM
[4]
  EC50: 760 ± 340 nM
  EC90: 3250 nM
[8]
  EC50: 901 nM
  EC90: 1690 nM

## CCCCCCCCCCCCCCCCOC[C@H](COP(=O)(O)OC[C@H]1O[C@@](C#N)(c2ccc3c(N)ncnn23)[C@H](O)[C@@H]1O)OCc1ccccc1 [Compound 15b, 1-O-Hexadecyl-2-O-benzyl-sn-glyceryl-phospho-RVn]
[1]
  CC50: 88200 ± 8890 nM
[2]
  EC50: 101 ± 20 nM
  EC90: 623 ± 272 nM
[5]
  CC50: > 20000 nM
[6]
  EC50: 130 nM
  EC90: 309 nM
[7]
  CC50: > 20000 nM
[3]
  CC50: > 50000 nM
[4]
  EC50: 560 ± 270 nM
  EC90: 980 ± 380 nM
[8]
  EC50: 395 nM
  EC90: 810 nM

## CCCCCCCCCCCCCCCCCCOC[C@H](COP(=O)(O)OC[C@H]1O[C@@](C#N)(c2ccc3c(N)ncnn23)[C@H](O)[C@@H]1O)OCCCCCCCC [Compound 15f, 1-O-Octadecyl-2-O-octyl-sn-glyceryl-phospho-RVn]
[1]
  CC50: > 20000 nM
[2]
  EC50: 410 ± 60 nM
  EC90: 2310 ± 738 nM
[5]
  CC50: > 20000 nM
[6]
  EC50: 710 nM
  EC90: 1710 nM
[7]
  CC50: > 20000 nM
[3]
  CC50: > 50000 nM
[4]
  EC50: 120 ± 57 nM
  EC90: 290 ± 58 nM
[8]
  EC50: 1330 nM
  EC90: 2350 nM

## CCCCCCCCCCCCCCCCCCOC[C@H](COP(=O)(O)OC[C@H]1O[C@@](C#N)(c2ccc3c(N)ncnn23)[C@H](O)[C@@H]1O)OCc1cccc(F)c1 [Compound 15h, 1-O-Octadecyl-2-O-(3-fluoro-benzyl)-sn-glyceryl-phospho-RVn]
[1]
  CC50: > 20000 nM
[2]
  EC50: 216 ± 62 nM
  EC90: 548 ± 368 nM
[5]
  CC50: > 20000 nM
[6]
  EC50: 182 nM
  EC90: 444 nM
[7]
  CC50: > 20000 nM
[3]
  CC50: 22900 ± 100 nM
[4]
  EC50: 1400 ± 58 nM
  EC90: 2800 ± 40 nM
[8]
  EC50: 270 nM
  EC90: 629 nM

## CCCCCCCC/C=C\CCCCCCCCOC[C@H](COP(=O)(O)OC[C@H]1O[C@@](C#N)(c2ccc3c(N)ncnn23)[C@H](O)[C@@H]1O)OCc1ccccc1 [Compound 15l, 1-O-Oleyl-2-O-benzyl-sn-glyceryl-phospho-RVn]
[1]
  CC50: 79000 ± 6950 nM
[2]
  EC50: 198 ± 77 nM
  EC90: 294 ± 93 nM
[5]
  CC50: > 20000 nM
[6]
  EC50: 100 nM
  EC90: 246 nM
[7]
  CC50: > 20000 nM
[3]
  CC50: > 50000 nM
[4]
  EC50: 130 ± 29 nM
  EC90: 260 ± 3.7 nM
[8]
  EC50: 295 nM
  EC90: 568 nM

## CCCCCCCCCCCCCCCCCCOC[C@@H](COP(=O)(O)OC[C@H]1O[C@@](C#N)(c2ccc3c(N)ncnn23)[C@H](O)[C@@H]1O)OCc1ccccc1 [Compound 15n, 3-O-Octadecyl-2-O-benzyl-sn-glyceryl-1-phospho-RVn]
[1]
  CC50: > 20000 nM
[2]
  EC50: 163 ± 22 nM
  EC90: 623 ± 183 nM

## CCCCCCCCCCCCCCCCCCOC[C@H](COP(=O)(O)OC[C@H]1O[C@@](C#N)(c2ccc3c(N)ncnn23)[C@H](O)[C@@H]1O)OCc1cccc(C(F)(F)F)c1 [Compound 15o, 1-O-Octadecyl-2-O-(3-trifluoromethyl)benzyl-sn-glyceryl-phospho-RVn]
[1]
  CC50: > 20000 nM
[2]
  EC50: 166 ± 68 nM
  EC90: 278 ± 109 nM
[3]
  CC50: 16000 ± 2800 nM
[4]
  EC50: 160 ± 46 nM
  EC90: 460 ± 270 nM

## CCCCCCCCCCCCCCCCCCOC[C@H](COP(=O)(O)OC[C@H]1O[C@@](C#N)(c2ccc3c(N)ncnn23)[C@H](O)[C@@H]1O)OCc1ccc(C(F)(F)F)cc1 [Compound 15p, 1-O-Octadecyl-2-O-(4-trifluoromethyl)benzyl-sn-glyceryl-phospho-RVn]
[3]
  CC50: 13900 ± 8800 nM
[4]
  EC90: 330 ± 39 nM

## CCCCCCCCCCCCCCCCCCOC[C@H](COP(=O)(OCc1ccccc1)OC[C@H]1O[C@@](C#N)(c2ccc3c(N)ncnn23)[C@H](O)[C@@H]1O)OCc1ccccc1 (stereo partly shown) [Compound 17, 1-O-Octadecyl-2-O-benzyl-sn-glyceryl-benzyl-phospho-RVn]
[1]
  CC50: > 20000 nM
[2]
  EC50: 5320 ± 1390 nM
  EC90: 10900 ± 5480 nM
[5]
  CC50: > 20000 nM
[6]
  EC50: 3540 nM
  EC90: 16400 nM
[7]
  CC50: > 20000 nM
[3]
  CC50: > 50000 nM
[4]
  EC50: 1500 ± 930 nM
  EC90: 4270 ± 880 nM
[8]
  EC50: 7440 nM
  EC90: 15300 nM

## CCCCCCCCCCCCCCCCCCOC[C@H](COP1(=O)OC[C@H]2O[C@@](C#N)(c3ccc4c(N)ncnn34)[C@H](O)[C@@H]2O1)OCc1ccccc1 (stereo partly shown) [Compound 18-eq, GS-441524-3′,5′-cyclic monophosphate, 1-O-octadecyl-2-O-benzyl-sn-glyceryl ester]
[1]
  CC50: > 20000 nM
[2]
  EC50: > 20000 nM
  EC90: > 20000 nM

## CCCCCCCCCCCCCCCCCCOCCOP1(=O)OCC2OC(C#N)(c3ccc4c(N)ncnn34)C(O)C2O1 (stereo not shown) [Compound 19-ax]
[1]
  CC50: > 20000 nM
[2]
  EC50: 8150 ± 8420 nM
  EC90: > 20000 nM

## CCCCCCCCCCCCCCCCCCOCCO[P@]1(=O)OC[C@H]2O[C@](C#N)(c3ccc4c(N)ncnn34)[C@H](O)[C@@H]2O1 [Compound 19-eq]
[1]
  CC50: > 20000 nM
[2]
  EC50: 2760 ± 808 nM
  EC90: 19200 ± 12700 nM

## CCCCCCCCCCCCCCCCOCCCOP(=O)(CO[C@H](C)Cn1cnc2c(N)ncnc21)OCc1ccccc1 (stereo partly shown) [HDP-Bn-TFV]
[11]
  T1/2 of TFVpp: 1.8
  Tmax of TFVpp: 0 h

## CCCCCCCCCCCCCCCCCCOC[C@H](COP(=O)(O)OC[C@H]1O[C@@](C#N)(c2ccc3c(N)ncnn23)[C@@H](O)C1O)OCc1ccc(C#N)cc1 (stereo partly shown) [OD(4-CN-Bn)G-P-RVn, 1-O-Octadecyl-2-O-(4-cyanobenzyl)-sn-glyceryl-phospho-RVn]
[12]
  SI: 1400
[12]; read-out: EC50
  EC50: 43 ± 13 nM
[12]; read-out: EC90
  EC90: 82 ± 22 nM
[13]
  SI: 1966
[13]; read-out: EC50
  EC50: 24 ± 2 nM
[13]; read-out: EC90
  EC90: 70 ± 10 nM

## CCCCCCCCCCCCCCCCCCOCCOP(=O)(CO[C@H](C)Cn1cnc2c(N)ncnc21)OCc1ccc(C)cc1 (stereo partly shown) [ODE-4MeBN-TFV]
[11]
  T1/2 of TFVpp: 3.1
  Tmax of TFVpp: 0 h
[9]
  CC50: 3410 nM
[10]; [15]
  Selectivity Index: 1620
  EC50: 2.1 nM

## CCCCCCCCCCCCCCCCCCOCCOP(=O)(CO[C@H](C)Cn1cnc2c(N)nc(N)nc21)OCc1ccccc1 (stereo partly drawn) [ODE-Bn-PMPDAP, Octadecyloxyethyl benzyl 9-(R)-[(2-phosphonomethoxy)propyl]-2,6-diaminopurine]
[10]
  EC50: active

## CCCCCCCCCCCCCCCCCCOCCOP(=O)(CO[C@H](C)Cn1cnc2c(N)ncnc21)OCC (stereo partly shown) [ODE-Et-TFV]
[11]; [16]
  Cmax of TFVpp: 0.91 ftg/cell
  Tmax of TFVpp: 0 h
[9]; [14]
  CC50: 5360 nM
[10]; [15]
  Selectivity Index: 95
  EC50: 57 nM

## CCCCCCCCCCCCCCCCCCOCCOP(=O)(O)CO[C@H](C)Cn1cnc2c(N)nc(N)nc21 [ODE-PMPDAP]
[9]; human PBMCs, read-out: CC50
  CC50: 7000 ± 7100 nM
[10]; CC50/EC50
  Selectivity Index: 77,700
[10]
  EC50: 0.09 ± 0.05 nM

## CCCCCCCC/C=C\CCCCCCCCOCCOP(=O)(CO[C@H](C)Cn1cnc2c(N)nc(N)nc21)OCc1ccccc1 (stereo partly drawn) [OLE-Bn-PMPDAP, Oleyloxyethyl benzyl 9-(R)-[(2-phosphonomethoxy)propyl]-2,6-diaminopurine]
[10]
  EC50: active
